# Test results from ChEMBL document CHEMBL1201862, “PubChem BioAssay data set” (2004).
#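 Exposure lasted 48 hours, with cells grown in 96-well plates and compounds tested at five concentrations. The concentration for 50% growth inhibition is given as GI50.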 Active and inactive are the calls of the source. No stated cut-off is given here; in the data, active = GI50 up to about 1.1 µM and inactive = higher.
# Columns and labels:
# Experiment in all cases: NCI anticancer screen, dose series, 48 h
# A549 = test system: A549
# ACHN = test system: ACHN
# CAKI-1 = test system: CAKI-1
# CCRF-CEM = test system: CCRF-CEM
# COLO 205 = test system: COLO 205
# DLD-1 = test system: DLD-1
# DMS-114 = test system: DMS-114
# EKVX = test system: EKVX
# HCT-116 = test system: HCT-116
# HCT-15 = test system: HCT-15
# HL-60 = test system: HL-60
# HOP-62 = test system: HOP-62
# HOP-92 = test system: HOP-92
# HT-29 = test system: HT-29
# IGROV-1 = test system: IGROV-1
# K562 = test system: K562
# KM12 = test system: KM12
# LOX IMVI = test system: LOX IMVI
# LXFL 529 = test system: LXFL 529
# M14 = test system: M14
# M19-MEL = test system: M19-MEL
# MOLT-4 = test system: MOLT-4
# Malme-3M = test system: Malme-3M
# NCI-H226 = test system: NCI-H226
# NCI-H23 = test system: NCI-H23
# NCI-H460 = test system: NCI-H460
# NCI-H522 = test system: NCI-H522
# OVCAR-3 = test system: OVCAR-3
# OVCAR-4 = test system: OVCAR-4
# OVCAR-5 = test system: OVCAR-5
# OVCAR-8 = test system: OVCAR-8
# RPMI-8226 = test system: RPMI-8226
# SF-268 = test system: SF-268
# SF-295 = test system: SF-295
# SF-539 = test system: SF-539
# SK-MEL-5 = test system: SK-MEL-5
# SK-OV-3 = test system: SK-OV-3
# SN12C = test system: SN12C
# SNB-75 = test system: SNB-75
# SNB-78 = test system: SNB-78
# SR = test system: SR
# SW-620 = test system: SW-620
# U-251 = test system: U-251
# UACC-62 = test system: UACC-62
compound,measurement,setting,value
O=C(NC(=O)c1cn(CCN2CCNCC2)c(=O)[nH]c1=O)OCc1ccccc1,GI50,A549,> 100 µM (inactive)
same,GI50,ACHN,> 100 µM (inactive)
same,GI50,CAKI-1,> 100 µM (inactive)
same,GI50,CCRF-CEM,> 100 µM (inactive)
same,GI50,COLO 205,> 100 µM (inactive)
same,GI50,DLD-1,> 100 µM (inactive)
same,GI50,DMS-114,63.5 µM (inactive)
same,GI50,EKVX,> 100 µM (inactive)
same,GI50,HCT-116,> 100 µM (inactive)
same,GI50,HCT-15,> 100 µM
same,GI50,HL-60,> 100 µM (inactive)
same,GI50,HOP-62,> 100 µM (inactive)
same,GI50,HOP-92,> 100 µM (inactive)
same,GI50,HT-29,> 100 µM (inactive)
same,GI50,IGROV-1,> 10 µM (inactive)
same,GI50,K562,> 100 µM (inactive)
same,GI50,KM12,> 100 µM (inactive)
same,GI50,LOX IMVI,> 100 µM (inactive)
same,GI50,LXFL 529,> 100 µM (inactive)
same,GI50,M14,> 100 µM (inactive)
same,GI50,M19-MEL,> 100 µM (inactive)
same,GI50,MOLT-4,> 100 µM (inactive)
same,GI50,Malme-3M,> 100 µM (inactive)
same,GI50,NCI-H226,> 100 µM (inactive)
same,GI50,NCI-H23,> 100 µM (inactive)
same,GI50,NCI-H460,> 100 µM (inactive)
same,GI50,NCI-H522,> 100 µM (inactive)
same,GI50,OVCAR-3,> 100 µM (inactive)
same,GI50,OVCAR-4,> 100 µM (inactive)
same,GI50,OVCAR-5,> 100 µM (inactive)
same,GI50,OVCAR-8,> 100 µM (inactive)
same,GI50,RPMI-8226,> 100 µM (inactive)
same,GI50,SF-268,> 100 µM (inactive)
same,GI50,SF-295,> 100 µM (inactive)
same,GI50,SF-539,> 100 µM (inactive)
same,GI50,SK-MEL-5,> 100 µM (inactive)
same,GI50,SK-OV-3,> 100 µM (inactive)
same,GI50,SN12C,> 100 µM (inactive)
same,GI50,SNB-75,68.9 µM (inactive)
same,GI50,SNB-78,> 100 µM (inactive)
same,GI50,SR,> 100 µM (inactive)
same,GI50,SW-620,> 100 µM (inactive)
same,GI50,U-251,> 100 µM (inactive)
same,GI50,UACC-62,> 100 µM (inactive)
